{"source": "paper PMC9518264", "about": "“Design and synthesis of novel quinazolinone-based derivatives as EGFR inhibitors with antitumor activity” (Journal of Enzyme Inhibition and Medicinal Chemistry, 2022)", "key": {"RPMI-8226": {"system": "RPMI-8226", "experiment": "cells", "type": "cell-based", "details": "Homo sapiens"}, "DU-145": {"system": "DU-145", "experiment": "cells", "type": "cell-based", "details": "Homo sapiens"}, "MALME-3M": {"system": "MALME-3M", "experiment": "cells", "type": "cell-based", "details": "Homo sapiens, read-out: growth inhibition % (GI%)"}, "UACC-62": {"system": "UACC-62", "experiment": "cells", "type": "cell-based", "details": "Homo sapiens"}, "EGFR": {"biological_target": "EGFR (Homo sapiens, UniProt P00533)", "sequence (P00533 669-1210)": "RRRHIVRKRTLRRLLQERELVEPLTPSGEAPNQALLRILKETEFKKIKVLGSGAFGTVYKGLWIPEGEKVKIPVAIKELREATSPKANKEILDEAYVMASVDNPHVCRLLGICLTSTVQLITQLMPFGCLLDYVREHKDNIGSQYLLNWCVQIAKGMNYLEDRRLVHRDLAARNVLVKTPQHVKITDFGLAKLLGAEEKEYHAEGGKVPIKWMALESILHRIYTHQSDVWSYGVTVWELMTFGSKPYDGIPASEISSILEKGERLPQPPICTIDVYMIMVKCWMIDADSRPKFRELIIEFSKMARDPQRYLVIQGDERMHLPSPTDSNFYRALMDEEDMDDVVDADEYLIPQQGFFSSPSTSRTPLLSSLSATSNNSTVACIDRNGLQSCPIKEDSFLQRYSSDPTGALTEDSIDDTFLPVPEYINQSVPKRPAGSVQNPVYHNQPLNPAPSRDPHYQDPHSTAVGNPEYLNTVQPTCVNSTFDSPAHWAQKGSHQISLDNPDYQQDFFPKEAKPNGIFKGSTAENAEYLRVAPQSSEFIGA", "experiment": "In vitro EGFR kinase inhibitory assay (Kinase-Glo Max luminescence kit)", "type": "biochemical"}, "BT-549": {"system": "BT-549", "experiment": "cells", "type": "cell-based", "details": "Homo sapiens"}, "NCI-H460": {"system": "NCI-H460", "experiment": "cells", "type": "cell-based", "details": "Homo sapiens"}, "OVCAR-5": {"system": "OVCAR-5", "experiment": "cells", "type": "cell-based", "details": "Homo sapiens"}, "HL-60(TB)": {"system": "HL-60(TB)", "experiment": "cells", "type": "cell-based", "details": "Homo sapiens"}, "SF-539": {"system": "SF-539", "experiment": "cells", "type": "cell-based", "details": "Homo sapiens"}, "NCI/ADR-RES": {"system": "NCI/ADR-RES", "experiment": "cells", "type": "cell-based", "details": "Homo sapiens, read-out: growth inhibition % (GI%)"}, "CAKI-1": {"system": "CAKI-1", "experiment": "cells", "type": "cell-based", "details": "Homo sapiens"}, "UACC-257": {"system": "UACC-257", "experiment": "cells", "type": "cell-based", "details": "Homo sapiens"}, "RXF 393": {"system": "RXF 393", "experiment": "cells", "type": "cell-based", "details": "Homo sapiens"}, "M14": {"system": "M14", "experiment": "cells", "type": "cell-based", "details": "Homo sapiens"}, "[1]": {"details": "RPMI-8226, read-out: growth inhibition % (GI%)"}, "[2]": {"details": "DU-145, read-out: growth inhibition % (GI%)"}, "[3]": {"details": "UACC-62, read-out: growth inhibition % (GI%)"}, "[4]": {"details": "BT-549, read-out: growth inhibition % (GI%)"}, "[5]": {"details": "NCI-H460, read-out: growth inhibition % (GI%)"}, "[6]": {"details": "OVCAR-5, read-out: growth inhibition % (GI%)"}, "[7]": {"details": "HL-60, read-out: growth inhibition % (GI%)"}, "[8]": {"details": "SF-539, read-out: growth inhibition % (GI%)"}, "[9]": {"details": "CAKI-1, read-out: growth inhibition % (GI%)"}, "[10]": {"details": "UACC-257, read-out: growth inhibition % (GI%)"}, "[11]": {"details": "RXF 393, read-out: growth inhibition % (GI%)"}, "[12]": {"details": "M14, read-out: growth inhibition % (GI%)"}}, "note": "Read-outs that look alike come from different tables or passages of the source.", "data": [{"smiles": "O=C(CSc1nc2ccccc2c(=O)n1-c1ccccc1)NN=Cc1ccc(Oc2ccc(Br)cc2)cc1", "note": "[6b, N'-(4–(4-bromophenoxy)benzylidene)-2-((4-oxo-3-phenyl-3,4-dihydroquinazolin-2-yl)thio) acetohydrazide]", "values": [{"measurement": "inhibition at 10 µM", "setting": "RPMI-8226; [1]", "result": 31.7, "unit": "%"}, {"measurement": "inhibition at 10 µM", "setting": "DU-145; [2]", "result": 61.7, "unit": "%"}, {"measurement": "inhibition at 10 µM", "setting": "MALME-3M; Malme-3M", "result": 45.1, "unit": "%"}, {"measurement": "inhibition at 10 µM", "setting": "UACC-62; [3]", "result": 31.2, "unit": "%"}, {"measurement": "IC50", "setting": "EGFR", "result": "487 ± 30", "unit": "nM"}, {"measurement": "inhibition at 10 µM", "setting": "BT-549; [4]", "result": 26.9, "unit": "%"}, {"measurement": "inhibition at 10 µM", "setting": "NCI-H460; [5]", "result": 72, "unit": "%"}, {"measurement": "inhibition at 10 µM", "setting": "OVCAR-5; [6]", "result": "< 15", "unit": "%"}, {"measurement": "inhibition at 10 µM", "setting": "HL-60(TB); [7]", "result": "< 15", "unit": "%"}, {"measurement": "inhibition at 10 µM", "setting": "SF-539; [8]", "result": 31.3, "unit": "%"}, {"measurement": "inhibition at 10 µM", "setting": "NCI/ADR-RES", "result": 44.8, "unit": "%"}, {"measurement": "inhibition at 10 µM", "setting": "CAKI-1; [9]", "result": 29.2, "unit": "%"}, {"measurement": "inhibition at 10 µM", "setting": "UACC-257; [10]", "result": "< 15", "unit": "%"}, {"measurement": "inhibition at 10 µM", "setting": "RXF 393; [11]", "result": 37.8, "unit": "%"}, {"measurement": "inhibition at 10 µM", "setting": "M14; [12]", "result": 43.7, "unit": "%"}]}, {"smiles": "O=C(CSc1nc2ccccc2c(=O)n1-c1ccccc1)NN=Cc1ccc(N2CCCCC2)cc1", "note": "[6g, 2-((4-oxo-3-phenyl-3,4-dihydroquinazolin-2-yl)thio)-N'-(4-(piperidin-1-yl)benzylidene) acetohydrazide]", "values": [{"measurement": "inhibition at 10 µM", "setting": "RPMI-8226; RPMI-8226, 10 μM, read-out: growth inhibition % (GI%)", "result": 17.6, "unit": "%"}, {"measurement": "inhibition at 10 µM", "setting": "DU-145; DU-145, 10 μM, read-out: growth inhibition % (GI%)", "result": "< 15", "unit": "%"}, {"measurement": "inhibition at 10 µM", "setting": "MALME-3M; MALME-3M, 10 μM", "result": "< 15", "unit": "%"}, {"measurement": "inhibition at 10 µM", "setting": "UACC-62; UACC-62, 10 μM, read-out: growth inhibition % (GI%)", "result": "< 15", "unit": "%"}, {"measurement": "inhibition at 10 µM", "setting": "BT-549; BT-549, 10 μM, read-out: growth inhibition % (GI%)", "result": "< 15", "unit": "%"}, {"measurement": "inhibition at 10 µM", "setting": "NCI-H460; NCI-H460, 10 μM, read-out: growth inhibition % (GI%)", "result": "< 15", "unit": "%"}, {"measurement": "inhibition at 10 µM", "setting": "OVCAR-5; OVCAR-5, 10 μM, read-out: growth inhibition % (GI%)", "result": "< 15", "unit": "%"}, {"measurement": "inhibition at 10 µM", "setting": "HL-60(TB); HL-60(TB), 10 μM, read-out: growth inhibition % (GI%)", "result": "< 15", "unit": "%"}, {"measurement": "inhibition at 10 µM", "setting": "SF-539; SF-539, 10 μM, read-out: growth inhibition % (GI%)", "result": "< 15", "unit": "%"}, {"measurement": "inhibition at 10 µM", "setting": "NCI/ADR-RES; 10 μM", "result": "< 15", "unit": "%"}, {"measurement": "melting point", "result": "164 to 166", "unit": "°C"}, {"measurement": "inhibition at 10 µM", "setting": "CAKI-1; CAKI-1, 10 μM, read-out: growth inhibition % (GI%)", "result": 22, "unit": "%"}, {"measurement": "inhibition at 10 µM", "setting": "UACC-257; UACC-257, 10 μM, read-out: growth inhibition % (GI%)", "result": "< 15", "unit": "%"}, {"measurement": "inhibition at 10 µM", "setting": "RXF 393; RXF 393, 10 μM, read-out: growth inhibition % (GI%)", "result": "< 15", "unit": "%"}, {"measurement": "inhibition at 10 µM", "setting": "M14; M14, 10 μM, read-out: growth inhibition % (GI%)", "result": "< 15", "unit": "%"}]}, {"smiles": "COc1ccc(Oc2ccc(C=NNC(=O)CSc3nc4ccccc4c(=O)n3-c3ccc(Cl)cc3)cc2)cc1", "note": "[6f, 2-((3–(4-chlorophenyl)-4-oxo-3,4-dihydroquinazolin-2-yl)thio)-N'-(4–(4-methoxyphenoxy)benzylidene)acetohydrazide]", "values": [{"measurement": "inhibition at 10 µM", "setting": "RPMI-8226; [1]", "result": 14.9, "unit": "%"}, {"measurement": "inhibition at 10 µM", "setting": "DU-145; [2]", "result": 50.8, "unit": "%"}, {"measurement": "inhibition at 10 µM", "setting": "MALME-3M; Malme-3M", "result": 36.1, "unit": "%"}, {"measurement": "inhibition at 10 µM", "setting": "UACC-62; [3]", "result": 38.1, "unit": "%"}, {"measurement": "IC50", "setting": "EGFR", "result": "133 ± 8", "unit": "nM"}, {"measurement": "inhibition at 10 µM", "setting": "BT-549; [4]", "result": "< 15", "unit": "%"}, {"measurement": "inhibition at 10 µM", "setting": "NCI-H460; [5]", "result": 88.8, "unit": "%"}, {"measurement": "inhibition at 10 µM", "setting": "OVCAR-5; [6]", "result": 18.8, "unit": "%"}, {"measurement": "inhibition at 10 µM", "setting": "HL-60(TB); [7]", "result": "< 15", "unit": "%"}, {"measurement": "inhibition at 10 µM", "setting": "SF-539; [8]", "result": 67.8, "unit": "%"}, {"measurement": "inhibition at 10 µM", "setting": "NCI/ADR-RES", "result": 48.9, "unit": "%"}, {"measurement": "inhibition at 10 µM", "setting": "UACC-257; [10]", "result": "< 15", "unit": "%"}]}, {"smiles": "O=C(CSc1nc2ccccc2c(=O)n1-c1ccccc1)NN=Cc1ccc(Oc2ccc(Cl)cc2)cc1", "note": "[6a, N'-(4–(4-chlorophenoxy)benzylidene)-2-((4-oxo-3-phenyl-3,4-dihydroquinazolin-2-yl)thio)acetohydrazide]", "values": [{"measurement": "inhibition at 10 µM", "setting": "RPMI-8226; [1]", "result": 26.8, "unit": "%"}, {"measurement": "inhibition at 10 µM", "setting": "DU-145; [2]", "result": 61.6, "unit": "%"}, {"measurement": "inhibition at 10 µM", "setting": "MALME-3M; Malme-3M", "result": 48.7, "unit": "%"}, {"measurement": "inhibition at 10 µM", "setting": "UACC-62; [3]", "result": 33.4, "unit": "%"}, {"measurement": "IC50", "setting": "EGFR", "result": "202 ± 12", "unit": "nM"}, {"measurement": "inhibition at 10 µM", "setting": "BT-549; [4]", "result": 30.1, "unit": "%"}, {"measurement": "inhibition at 10 µM", "setting": "NCI-H460; [5]", "result": 67.9, "unit": "%"}, {"measurement": "inhibition at 10 µM", "setting": "OVCAR-5; [6]", "result": 18.6, "unit": "%"}, {"measurement": "inhibition at 10 µM", "setting": "HL-60(TB); [7]", "result": "< 15", "unit": "%"}, {"measurement": "inhibition at 10 µM", "setting": "SF-539; [8]", "result": 31.5, "unit": "%"}, {"measurement": "inhibition at 10 µM", "setting": "NCI/ADR-RES", "result": 47.3, "unit": "%"}, {"measurement": "inhibition at 10 µM", "setting": "CAKI-1; [9]", "result": 40.8, "unit": "%"}, {"measurement": "inhibition at 10 µM", "setting": "UACC-257; [10]", "result": "< 15", "unit": "%"}, {"measurement": "inhibition at 10 µM", "setting": "RXF 393; [11]", "result": 58, "unit": "%"}, {"measurement": "inhibition at 10 µM", "setting": "M14; [12]", "result": 51.2, "unit": "%"}]}, {"smiles": "O=C(CSc1nc2ccccc2c(=O)n1-c1ccc(Cl)cc1)NN=Cc1ccc(N2CCCCC2)cc1", "note": "[6j, 2-((3–(4-chlorophenyl)-4-oxo-3,4-dihydroquinazolin-2-yl)thio)-N'-(4-(piperidin-1-yl)benzylidene) acetohydrazide]", "values": [{"measurement": "inhibition at 10 µM", "setting": "RPMI-8226; [1]", "result": "< 15", "unit": "%"}, {"measurement": "inhibition at 10 µM", "setting": "DU-145; [2]", "result": 70.9, "unit": "%"}, {"measurement": "inhibition at 10 µM", "setting": "MALME-3M; Malme-3M", "result": 35.8, "unit": "%"}, {"measurement": "inhibition at 10 µM", "setting": "UACC-62; [3]", "result": 26.5, "unit": "%"}, {"measurement": "IC50", "setting": "EGFR", "result": "478 ± 29", "unit": "nM"}, {"measurement": "inhibition at 10 µM", "setting": "BT-549; [4]", "result": "< 15", "unit": "%"}, {"measurement": "inhibition at 10 µM", "setting": "NCI-H460; [5]", "result": 90.3, "unit": "%"}, {"measurement": "inhibition at 10 µM", "setting": "OVCAR-5; [6]", "result": 23.1, "unit": "%"}, {"measurement": "inhibition at 10 µM", "setting": "HL-60(TB); [7]", "result": "< 15", "unit": "%"}, {"measurement": "inhibition at 10 µM", "setting": "SF-539; [8]", "result": 58.7, "unit": "%"}, {"measurement": "inhibition at 10 µM", "setting": "NCI/ADR-RES", "result": 60.1, "unit": "%"}, {"measurement": "inhibition at 10 µM", "setting": "UACC-257; [10]", "result": "< 15", "unit": "%"}]}]}
